Measurements reported in publication PMC7645423, “Chemical composition and biological effects of kratom (Mitragyna speciosa): In vitro studies with implications for efficacy and drug interactions” (Scientific Reports, 2020).
Entries after “also recorded” stand apart in the source; their conditions may differ.

Legend:
µ-opioid receptor [1] = molecular target: T1, µ-opioid receptor (Homo sapiens, UniProt P35372); experiment: biochemical; type: binding; parameters: expressed in transfected cells
hMOR = hMOR (Homo sapiens, UniProt P35372); experiment: cell-based; type: cell-based; conditions: for Emax: CHO-K1, read-out: cAMP accumulation Emax %
Sequence of hMOR (P35372 whole entry): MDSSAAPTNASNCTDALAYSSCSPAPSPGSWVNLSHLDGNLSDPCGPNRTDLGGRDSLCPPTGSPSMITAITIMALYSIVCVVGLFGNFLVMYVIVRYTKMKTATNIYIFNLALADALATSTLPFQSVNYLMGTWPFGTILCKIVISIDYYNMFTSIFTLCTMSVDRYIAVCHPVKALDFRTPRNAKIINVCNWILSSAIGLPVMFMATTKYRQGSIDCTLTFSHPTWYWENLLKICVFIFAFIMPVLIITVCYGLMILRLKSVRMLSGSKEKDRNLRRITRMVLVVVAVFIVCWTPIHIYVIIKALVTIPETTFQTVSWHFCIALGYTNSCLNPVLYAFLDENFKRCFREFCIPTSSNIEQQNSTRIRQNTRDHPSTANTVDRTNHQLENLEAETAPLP

CYP2D6 = CYP2D6 (Homo sapiens, UniProt P10635); experiment: CYP inhibition in human liver microsomes, dextromethorphan O-demethylation; conditions: for Inhibition of CYP2D6 activity (in words): human liver microsomes, extracts 2, 10, 20 µg/mL, alkaloids 1, 10, 100 µM
Sequence of CYP2D6 (P10635 whole entry): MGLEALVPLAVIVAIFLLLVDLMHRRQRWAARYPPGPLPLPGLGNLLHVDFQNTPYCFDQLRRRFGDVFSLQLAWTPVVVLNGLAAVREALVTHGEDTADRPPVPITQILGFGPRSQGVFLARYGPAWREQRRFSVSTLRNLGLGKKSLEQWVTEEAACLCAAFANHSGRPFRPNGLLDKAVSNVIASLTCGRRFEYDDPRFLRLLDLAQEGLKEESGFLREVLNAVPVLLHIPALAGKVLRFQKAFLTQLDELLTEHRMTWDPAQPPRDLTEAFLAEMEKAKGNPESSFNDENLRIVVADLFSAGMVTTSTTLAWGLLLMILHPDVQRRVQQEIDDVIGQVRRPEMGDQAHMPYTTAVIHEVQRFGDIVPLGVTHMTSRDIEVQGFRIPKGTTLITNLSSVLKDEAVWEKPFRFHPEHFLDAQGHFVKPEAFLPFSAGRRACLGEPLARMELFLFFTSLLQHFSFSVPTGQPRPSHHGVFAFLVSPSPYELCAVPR

CYP2C9 = CYP2C9 (Homo sapiens, UniProt P11712); experiment: CYP inhibition in human liver microsomes, diclofenac 4′-hydroxylation; conditions: for Inhibition of CYP2C9 activity (in words): human liver microsomes, extracts 2, 10, 20 µg/mL, alkaloids 1, 10, 100 µM
Sequence of CYP2C9 (P11712 whole entry): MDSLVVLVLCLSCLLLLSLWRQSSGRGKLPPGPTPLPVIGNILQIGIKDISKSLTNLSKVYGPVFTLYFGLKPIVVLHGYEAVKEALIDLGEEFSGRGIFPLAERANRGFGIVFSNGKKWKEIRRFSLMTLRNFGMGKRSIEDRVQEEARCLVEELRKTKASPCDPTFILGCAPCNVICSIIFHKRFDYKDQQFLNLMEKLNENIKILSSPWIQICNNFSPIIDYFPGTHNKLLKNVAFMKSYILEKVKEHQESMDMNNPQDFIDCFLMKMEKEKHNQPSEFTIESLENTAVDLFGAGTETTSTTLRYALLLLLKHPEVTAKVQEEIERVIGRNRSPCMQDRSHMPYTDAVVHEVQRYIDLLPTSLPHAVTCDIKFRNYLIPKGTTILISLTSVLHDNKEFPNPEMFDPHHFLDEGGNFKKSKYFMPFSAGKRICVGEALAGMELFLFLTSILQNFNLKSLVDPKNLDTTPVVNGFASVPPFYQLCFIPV

human δ-opioid receptor = molecular target: T2, human δ-opioid receptor (Homo sapiens, UniProt P41143); experiment: Competitive radioligand binding, δ-opioid receptor; conditions: for Ki: competitive binding against 3H-deltorphin, HEK293 cell membranes, minimum of three replicates, read-out: Receptor binding affinity (Ki ± SEM, nM) δ-opioid; for Affinity at δ-opioid receptor (in words): competitive radioligand binding, HEK293
T2 construct: expressed in transfected cells
T2 sequence (P41143 whole entry): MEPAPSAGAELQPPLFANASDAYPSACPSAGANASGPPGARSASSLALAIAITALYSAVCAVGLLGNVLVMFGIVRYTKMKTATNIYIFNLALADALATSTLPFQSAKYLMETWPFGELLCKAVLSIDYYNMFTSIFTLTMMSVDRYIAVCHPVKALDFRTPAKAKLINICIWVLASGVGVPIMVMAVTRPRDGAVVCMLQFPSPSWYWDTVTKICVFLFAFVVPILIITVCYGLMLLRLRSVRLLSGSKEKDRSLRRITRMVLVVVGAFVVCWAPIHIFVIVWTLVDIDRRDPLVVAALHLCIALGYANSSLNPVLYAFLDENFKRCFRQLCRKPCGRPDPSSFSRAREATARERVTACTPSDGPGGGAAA

human κ-opioid receptor = molecular target: T3, human κ-opioid receptor (Homo sapiens, UniProt P41145); experiment: biochemical; type: binding
T3 construct: expressed in transfected cells
T3 sequence (P41145 whole entry): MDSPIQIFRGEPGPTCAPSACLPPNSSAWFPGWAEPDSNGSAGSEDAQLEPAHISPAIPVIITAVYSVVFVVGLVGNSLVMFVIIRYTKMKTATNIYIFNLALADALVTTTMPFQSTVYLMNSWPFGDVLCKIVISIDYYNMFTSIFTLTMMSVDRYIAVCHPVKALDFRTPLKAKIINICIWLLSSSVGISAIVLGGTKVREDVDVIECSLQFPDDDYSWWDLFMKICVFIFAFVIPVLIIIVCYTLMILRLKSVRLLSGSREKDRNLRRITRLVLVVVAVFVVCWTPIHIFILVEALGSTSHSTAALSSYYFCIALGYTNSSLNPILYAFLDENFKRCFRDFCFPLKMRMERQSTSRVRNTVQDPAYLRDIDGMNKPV

µ-opioid receptor [2] = molecular target: T1, µ-opioid receptor; type: cell-based
CYP3A = CYP3A (Homo sapiens, UniProt P08684); experiment: CYP inhibition in human liver microsomes, midazolam 1′-hydroxylation; conditions: for Inhibition of CYP3A activity (in words): human liver microsomes, extracts 2, 10, 20 µg/mL, alkaloids 1, 10, 100 µM
Sequence of CYP3A (P08684 2-503): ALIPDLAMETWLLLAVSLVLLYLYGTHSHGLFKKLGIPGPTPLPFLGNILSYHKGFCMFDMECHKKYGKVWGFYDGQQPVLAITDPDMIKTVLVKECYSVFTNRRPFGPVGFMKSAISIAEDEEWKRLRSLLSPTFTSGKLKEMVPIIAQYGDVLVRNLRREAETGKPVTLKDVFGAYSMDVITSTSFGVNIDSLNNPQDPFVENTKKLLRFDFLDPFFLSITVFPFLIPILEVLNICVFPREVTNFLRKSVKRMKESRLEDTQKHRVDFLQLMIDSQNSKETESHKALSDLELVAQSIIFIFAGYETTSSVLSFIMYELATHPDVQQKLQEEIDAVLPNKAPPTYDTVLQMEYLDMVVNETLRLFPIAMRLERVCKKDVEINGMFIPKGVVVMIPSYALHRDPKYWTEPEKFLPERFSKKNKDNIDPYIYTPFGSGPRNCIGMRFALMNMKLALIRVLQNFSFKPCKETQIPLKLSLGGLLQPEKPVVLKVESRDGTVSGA

[3] = tested on: human µ-opioid receptor (hMOR); conditions: cited from earlier work

T1 sequence (P35372 whole entry): as the sequence (P35372 whole entry) above

Row | SMILES | Affinity at µ-opioid receptor (in words) (µ-opioid receptor [1]) | Ki (µ-opioid receptor [1]) [µM] | EC50 (hMOR) [µM] | Inhibition of forskolin-stimulated cAMP accumulation (in words) (hMOR) | Emax (hMOR) [%] | Inhibition of CYP2D6 activity (in words) (CYP2D6) | Inhibition of CYP2C9 activity (in words) (CYP2C9) | Ki (human δ-opioid receptor) [nM] | Affinity at δ-opioid receptor (in words) (human δ-opioid receptor) | Affinity at ƙ-opioid receptor (in words) (human κ-opioid receptor) | Ki (human κ-opioid receptor) [µM] | β-arrestin-2 recruitment (in words) (µ-opioid receptor [2]) | Inhibition of CYP3A activity (in words) (CYP3A) | IC50 (CYP2D6) [µM] | IC50 (CYP2C9) [µM] | IC50 at 2 min (CYP3A; human, microsomes, pH 7.4) [µM] | Affinity at the μ-opioid receptor compared to mitragynine [3]
1 | CC[C@@H]1CN2CC[C@]3(C(=O)Nc4cccc(O)c43)[C@H]2C[C@@H]1/C(=C\OC)C(=O)OC [Speciofoline, speciofoline] | did not exhibit appreciable affinity | > 10 | 4.24 ± 2.93 | has no effect | 12.2 ± 3.5 | concentration-dependent inhibition | concentration-dependent inhibition | > 10000 | did not exhibit appreciable affinity | did not exhibit appreciable affinity | > 10 | fail to recruit β-arrestin-2 | concentration-dependent inhibition | – | – | – | –
2 | C[C@@H](NC(=O)[C@@H](N)Cc1ccc(O)cc1)C(=O)NCC(=O)N(C)[C@@H](Cc1ccccc1)C(=O)NCCO [DAMGO, reference compound] | – | – | – | fully inhibit cAMP accumulation | 86.2 ± 1.8 | – | – | – | – | – | – | effectively recruit β-arrestin-2 | – | – | – | – | –
3 | CC[C@@H]1CN2CCc3c([nH]c4cccc(OC)c34)[C@@H]2C[C@@H]1/C(=C\OC)C(=O)OC [Mitragynine, mitragynine] | moderate affinity | – | – | partially inhibit cAMP accumulation | – | stronger inhibition than speciofoline; also recorded: concentration-dependent inhibition | concentration-dependent inhibition | > 10000 | – | moderate affinity | 0.482 ± 0.029 | fail to recruit β-arrestin-2 | concentration-dependent inhibition | ~1 | 10 to 100 | 10 to 100 | –
4 | CC[C@@H]1CN2CC[C@@]3(O)C(=Nc4cccc(OC)c43)[C@@H]2C[C@@H]1/C(=C\OC)C(=O)OC [7-Hydroxymitragynine, 7-hydroxymitragynine] | strong affinity | – | – | partially inhibit cAMP accumulation | – | moderate inhibitor; also recorded: concentration-dependent inhibition | weak inhibitor; also recorded: concentration-dependent inhibition | – | moderate affinity | moderate affinity | – | fail to recruit β-arrestin-2 | weak inhibitor; also recorded: concentration-dependent inhibition | – | – | – | approximately fivefold greater affinity
